Experimental data taken from US7033578B2, “Antimycotic nail varnish composition” (Polichem S.A., priority 2000, dated 2006).

System: Tricophytes Mentagrophytes
Test: Inhibition of growth of the onychomycosis pathogen on standard plates (Sabourand Dex., 30° C.)
Assay type: cell-based
Settings: ciclopirox 8%, hydroxypropylchitosan 1%; Sabourand Dex. at 30° C.; 10, 20 and 30 μl applied
Experimental: Inhibition of the pathogen responsible for onychomycosis in humans was tested in accordance with standard procedures on standard plates. Comparison of the antimycotic effect of ciclopirox (8%) alone and, hydroxypropychitosan (1%) alone with the combination of these two compounds (8 and 1%, respectively) with respect to the growth of Tricophytes Mentagrophytes on Sabourand Dex. at 30° C. gave the following results (amounts applied in each case 10, 20 and 30 μl): […]

Cc1cc(C2CCCCC2)n(O)c(=O)c1 [ciclopirox]
antimycotic effect: inhibition of growth of Tricophytes Mentagrophytes: good inhibition
